Blank lines part the entries; values can stand above or below the compound they belong to.
Experiments:
697 = assay: Cytotoxicity activity against human 697 cells assessed as reduction cell viability at 50 uM incubated for 48 hrs by ATP-glo assay; type: functional, cell-based; details: Homo sapiens, 697, 48 h
MOLM-14 [1] = assay: Cytotoxicity against human MOLM-14 cells assessed as reduction in cell viability incubated for 72 hrs; type: functional, cell-based; details: MOLM-14, 72 h
MV4-11 [2] = assay: Antiproliferative activity against human MV4-11 cells assessed as reduction in cell proliferation measured after 24 hrs by MTT assay; type: functional, cell-based; details: MV4-11, 24 h
[3] = molecular target: T1, Receptor-type tyrosine-protein kinase FLT3 (Homo sapiens, UniProt P36888); assay: Inhibition of FLT3 (unknown origin) autophosphorylation expressed in human Leukemia cells; type: cell-based, Leukemia cell
T1 sequence (P36888 whole entry): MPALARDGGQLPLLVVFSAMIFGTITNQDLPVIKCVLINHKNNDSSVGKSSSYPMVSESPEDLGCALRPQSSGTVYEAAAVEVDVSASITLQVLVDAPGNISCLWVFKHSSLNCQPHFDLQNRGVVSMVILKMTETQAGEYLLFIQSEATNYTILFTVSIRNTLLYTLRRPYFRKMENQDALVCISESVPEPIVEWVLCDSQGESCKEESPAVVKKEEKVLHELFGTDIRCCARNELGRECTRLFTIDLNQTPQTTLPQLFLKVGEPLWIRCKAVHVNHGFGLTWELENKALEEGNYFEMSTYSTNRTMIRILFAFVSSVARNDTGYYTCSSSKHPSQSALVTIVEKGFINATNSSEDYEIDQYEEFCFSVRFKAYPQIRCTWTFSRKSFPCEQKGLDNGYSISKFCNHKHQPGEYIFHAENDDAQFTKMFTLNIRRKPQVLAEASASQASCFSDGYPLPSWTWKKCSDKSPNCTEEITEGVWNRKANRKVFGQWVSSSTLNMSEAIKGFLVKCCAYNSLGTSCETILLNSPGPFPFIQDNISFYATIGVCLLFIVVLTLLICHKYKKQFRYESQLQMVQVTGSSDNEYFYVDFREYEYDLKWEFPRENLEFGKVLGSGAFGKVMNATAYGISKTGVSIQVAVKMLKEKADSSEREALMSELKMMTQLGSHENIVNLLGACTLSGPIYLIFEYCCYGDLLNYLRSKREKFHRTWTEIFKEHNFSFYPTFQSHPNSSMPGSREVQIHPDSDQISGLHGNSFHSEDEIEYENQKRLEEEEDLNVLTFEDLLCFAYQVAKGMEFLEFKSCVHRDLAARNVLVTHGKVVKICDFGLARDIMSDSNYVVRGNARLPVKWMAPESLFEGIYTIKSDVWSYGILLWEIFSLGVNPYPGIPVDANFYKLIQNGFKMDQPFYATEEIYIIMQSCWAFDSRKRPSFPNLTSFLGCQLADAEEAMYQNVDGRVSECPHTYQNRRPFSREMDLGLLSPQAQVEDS

cells = details: Homo sapiens, TF cell, 72 h
BaF3 [4] = assay: Antiproliferative activity against mouse BaF3 FLT3-D835 cells assessed as reduction in cell viability measured after 72 hrs by MTS assay; type: functional, cell-based; details: BaF3, 72 h
MOLM-14 [5] = assay: cells; details: Homo sapiens, MOLM-14, 72 h
MV4-11 [6] = assay: Growth inhibition of human MV4-11 cells incubated for 72 hrs by CCK-8 assay; type: functional
MOLM-13 [7] = assay: Growth inhibition of human MOLM-13 cells incubated for 72 hrs by CCK-8 assay; type: functional
MOLM-14 [8] = assay: Growth inhibition of human MOLM-14 cells incubated for 72 hrs by CCK-8 assay; type: functional
[9] = molecular target: T2, Receptor-type tyrosine-protein kinase FLT3 (Homo sapiens, UniProt P36888, ITD)
MV4-11 [10] = assay: cells; details: Homo sapiens, MV4-11, 48 h
Description: Antiproliferative activity against human MV4-11 cells assessed as reduction in cell viability after 48 hrs by Alamar Blue assay

MOLM-13 [11] = assay: cells; details: Homo sapiens, MOLM-13, 72 h
Description: Cytotoxicity against human MOLM-13 cells assessed as reduction in cell viability incubated for 72 hrs

[12] = molecular target: T2, Receptor-type tyrosine-protein kinase FLT3; assay: Inhibition of FLT3-ITD mutant (unknown origin) expressed in mouse BaF3 cells assessed as inhibition; type: cell-based
[13] = molecular target: T1, Receptor-type tyrosine-protein kinase FLT3; assay: Inhibition of FLT3 (unknown origin) by ADP-Glo kinase assay
MOLM-13 [14] = assay: Antiproliferative activity against human MOLM-13 cells assessed as reduction in cell viability measured after 48 hrs by MTT assay; type: functional, cell-based; details: MOLM-13, 48 h
MV4-11 [15] = assay: Antiproliferative activity against human MV4-11 cells assessed as cell growth inhibition measured after 48 hrs by cell titer glo assay; type: functional, cell-based; details: MV4-11, 48 h
HL-60 = assay: Growth inhibition of human HL-60 cells incubated for 4 days by WST assay; type: functional; details: HL-60, 96 h, time 4 day
[16] = molecular target: Receptor-type tyrosine-protein kinase FLT3 (Homo sapiens, UniProt P36888, D835Y); assay: Inhibition of FLT3-D835Y mutant (unknown origin)
BaF3 [17] = assay: cells; details: Mus musculus, BaF3, 72 h
BaF3 [18] = assay: cells; details: Mus musculus, BaF3, 72 h; remark: listed apart in the source
MV4-11 [19] = assay: cells; details: Homo sapiens, MV4-11, 72 h
Description: Cytotoxicity against human MV4-11 cells assessed as cell viability incubated for 72 hrs by Cell titer-blue assay

BaF3 [20] = assay: cells; details: Mus musculus, BaF3, 72 h; remark: listed apart in the source
MOLM-13 [21] = assay: cells; details: Homo sapiens, MOLM-13, 72 h; remark: listed apart in the source
MOLM-13 [22] = assay: Cytotoxicity against human MOLM-13 cells assessed as cell viability incubated for 72 hrs by Cell titer-blue assay; type: functional, cell-based; details: MOLM-13, 72 h

SMILES: CCCCNc1ncc2c(-c3ccc(CN4CCN(C)CC4)cc3)cn([C@H]3CC[C@H](O)CC3)c2n1
- IC50 697: 2.7 nM
- IC50 (MOLM-14 [1]): 14 nM

SMILES: CNC(=O)[C@@]1(N)C[C@H]2O[C@]1(C)n1c3ccccc3c3c4c(c5c6ccccc6n2c5c31)C(=O)NC4
- IC50 (MV4-11 [2]): < 0.25 nM
- IC50 [3]: 0.1 nM

SMILES: CCc1nc(C(N)=O)c(Nc2ccc(N3CCC(N4CCN(C)CC4)CC3)c(OC)c2)nc1NC1CCOCC1 [GILTERITINIB]
- IC50 (cells): 1.4 nM
- IC50 (BaF3 [4]): 0.7 nM
- IC50 (MOLM-14 [5]): 1.8 nM

SMILES: Cc1[nH]c(/C=C2\C(=O)Nc3ccc(F)cc32)c(C)c1NC(=O)[C@@H]1CCCN1
- IC50 [9]: 5.3 nM
- IC50 (MV4-11 [10]): 24.8 nM
- IC50 (MOLM-13 [11]): 23.6 nM

SMILES: COc1cc(Nc2nc3cccc(-c4cccc(C(N)=O)c4)c3o2)ccc1N1CCNCC1
- IC50 [9]: 0.41 nM
- IC50 (MV4-11 [15]): 37 nM

SMILES: CC1=CC(=O)N(Nc2nc(-c3cccs3)nc3sc(C)c(C)c23)C1=O
- GI50 (MV4-11 [6]): 216 nM
- IC50 [9]: 16 nM
- GI50 (HL-60): > 10000 nM
- IC50 [16]: 21 nM

SMILES: CN(C)CC(=O)N1CCC[C@@H](n2nc(-c3ccc(Oc4ccccc4)cc3)c3c(N)ncnc32)C1
- GI50 (MV4-11 [6]): 22 nM
- GI50 (MOLM-13 [7]): 21 nM
- GI50 (MOLM-14 [8]): 42 nM

SMILES: CC1(COc2ccc3c(c2)ncn3-c2ccc3cccc(N4CCC(N)CC4)c3n2)COC1 [CRENOLANIB]
- IC50 (MV4-11 [19]): 0.92 nM
- IC50 (BaF3 [20]): 1.3 nM
- IC50 (MV4-11 [10]): 1.3 nM
- IC50 (MOLM-13 [21]): 2 nM
- IC50 (MOLM-13 [22]): 2.9 nM
- IC50 (MOLM-14 [5]): 2 nM
- IC50 (MOLM-14 [1]): 2 nM
- IC50 (MOLM-13 [11]): 4.9 nM

The next lines start with the values.

- GI50 (MV4-11 [6]): 0.83 nM
- GI50 (MOLM-13 [7]): 1.1 nM
- GI50 (MOLM-14 [8]): 1.5 nM
SMILES: CCCNc1nc(Nc2ccc(C#N)cc2)ncc1C#CCCCNC(=O)[C@H](C)N(C)C(=O)/C=C/CN(C)C [FF-10101]

- IC50 [9]: 6.5 nM
- IC50 (MV4-11 [10]): 0.49 nM
- IC50 (MOLM-14 [5]): 0.72 nM
SMILES: Cc1ccc(C(=O)Nc2ccc(CN3CCN(C)CC3)c(C(F)(F)F)c2)cc1C#Cc1c(N)ncc2ccc(Cl)cc12

- IC50 [12]: 1.1 nM
- IC50 [13]: 9 nM
- IC50 (MOLM-13 [14]): 0.24 nM
SMILES: COc1cc2c(Oc3ccc(NC(=O)Nc4cccc(C)c4)cc3F)ccnc2cc1OCCCN1CCOCC1

- IC50 [9]: 71 nM
SMILES: Cc1cc2ncc(-c3ccc(NC(=O)Nc4cc(C(C)(C)C)on4)cc3)nc2cc1C

- IC50 (BaF3 [17]): 21.4 nM
- IC50 (BaF3 [18]): 38.1 nM
- IC50 (MV4-11 [10]): 3.5 nM
- IC50 (MOLM-14 [5]): 7.5 nM
SMILES: CN1CCC(Nc2nc(Nc3ccc(Oc4ccccc4)cc3)c3c(=O)[nH]cc(Br)c3n2)CC1 [DENFIVONTINIB]
